The source made the active and inactive calls. No cut-off for these calls is given here.
Experiments:
[1] = target: T1, P2Y purinoceptor 2 (Homo sapiens, UniProt P41231); assay: Agonist activity at human P2Y2 receptor expressed in 1321N1 cells assessed as IP accumulation by SPA at 1 uM; format: functional, cell-based
[2] = target: T1, P2Y purinoceptor 2; assay: Agonist activity at human P2Y2 receptor expressed in 1321N1 cells assessed as IP accumulation by SPA; format: functional, cell-based
[3] = target: T2, P2Y purinoceptor 6 (Homo sapiens, UniProt Q15077); assay: Agonist activity at human P2Y6 receptor expressed in 1321N1 cells assessed as IP accumulation by SPA; format: functional, cell-based
Target sequence in this assay (Q15077 whole entry): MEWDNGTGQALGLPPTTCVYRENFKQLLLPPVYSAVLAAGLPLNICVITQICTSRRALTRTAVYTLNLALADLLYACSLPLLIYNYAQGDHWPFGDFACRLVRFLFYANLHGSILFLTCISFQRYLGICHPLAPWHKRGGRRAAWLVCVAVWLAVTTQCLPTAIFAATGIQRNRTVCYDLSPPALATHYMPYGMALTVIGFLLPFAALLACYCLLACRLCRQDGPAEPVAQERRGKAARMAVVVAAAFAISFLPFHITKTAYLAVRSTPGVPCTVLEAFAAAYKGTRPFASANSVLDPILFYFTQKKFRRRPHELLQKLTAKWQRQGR

[4] = target: T1, P2Y purinoceptor 2; assay: Agonist activity at human P2Y2 receptor expressed in 1321N1 cells assessed as IP accumulation by SPA at 100 uM; format: functional, cell-based
[5] = target: T3, P2Y purinoceptor 4 (Homo sapiens, UniProt P51582); assay: Agonist activity at human P2Y4 receptor expressed in 1321N1 cells assessed as IP accumulation by SPA; format: functional, cell-based
Target sequence in this assay (P51582 whole entry): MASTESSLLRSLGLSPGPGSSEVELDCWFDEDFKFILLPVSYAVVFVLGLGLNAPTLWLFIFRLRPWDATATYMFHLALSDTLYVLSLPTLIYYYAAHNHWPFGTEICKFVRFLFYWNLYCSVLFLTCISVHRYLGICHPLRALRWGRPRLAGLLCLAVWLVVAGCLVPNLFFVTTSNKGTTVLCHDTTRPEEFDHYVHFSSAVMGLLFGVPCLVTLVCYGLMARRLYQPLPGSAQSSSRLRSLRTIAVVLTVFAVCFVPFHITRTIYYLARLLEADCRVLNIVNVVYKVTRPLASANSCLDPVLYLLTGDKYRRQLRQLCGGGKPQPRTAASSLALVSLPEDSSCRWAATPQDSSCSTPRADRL

[6] = target: T3, P2Y purinoceptor 4; assay: Agonist activity at human P2Y4 receptor expressed in 1321N1 cells assessed as IP accumulation by SPA at 1 uM; format: functional, cell-based
Target sequence in this assay (P51582 whole entry): as above

[7] = target: T3, P2Y purinoceptor 4; assay: Agonist activity at human P2Y4 receptor expressed in 1321N1 cells assessed as IP accumulation by SPA at 100 uM; format: functional, cell-based
Target sequence in this assay (P51582 whole entry): as above

[8] = target: T2, P2Y purinoceptor 6; assay: Agonist activity at human P2Y6 receptor expressed in 1321N1 cells assessed as IP accumulation by SPA at 1 uM; format: functional, cell-based
Target sequence in this assay (Q15077 whole entry): as the sequence (Q15077 whole entry) above

[9] = target: T2, P2Y purinoceptor 6; assay: Agonist activity at human P2Y6 receptor expressed in 1321N1 cells assessed as IP accumulation by SPA at 100 uM; format: functional, cell-based
Target sequence in this assay (Q15077 whole entry): as above

[10] = target: T2, P2Y purinoceptor 6; assay: Antagonist activity at human P2Y6 receptor assessed as inhibition of UDP-induced IP accumulation at 100 uM
Target sequence in this assay (Q15077 whole entry, looked up): as the sequence (Q15077 whole entry) above

[11] = target: P2Y purinoceptor 6 (Rattus norvegicus, UniProt Q63371); assay: Agonist activity at rat P2Y6 receptor assessed as IP accumulation by SPA; format: functional
[12] = species: Homo sapiens; assay: Selectivity for human P2Y6 over P2Y2
[13] = species: Homo sapiens; assay: Selectivity for human P2Y6 over P2Y4
[14] = target: T1, P2Y purinoceptor 2; assay: Antagonist activity at human P2Y2 receptor assessed as inhibition of UTP-induced IP accumulation at 100 uM; format: functional
[15] = target: T3, P2Y purinoceptor 4; assay: Antagonist activity at human P2Y4 receptor assessed as inhibition of UTP-induced IP accumulation at 100 uM
Target sequence in this assay (P51582 whole entry, looked up): as the sequence (P51582 whole entry) above

T1 sequence (P41231 whole entry): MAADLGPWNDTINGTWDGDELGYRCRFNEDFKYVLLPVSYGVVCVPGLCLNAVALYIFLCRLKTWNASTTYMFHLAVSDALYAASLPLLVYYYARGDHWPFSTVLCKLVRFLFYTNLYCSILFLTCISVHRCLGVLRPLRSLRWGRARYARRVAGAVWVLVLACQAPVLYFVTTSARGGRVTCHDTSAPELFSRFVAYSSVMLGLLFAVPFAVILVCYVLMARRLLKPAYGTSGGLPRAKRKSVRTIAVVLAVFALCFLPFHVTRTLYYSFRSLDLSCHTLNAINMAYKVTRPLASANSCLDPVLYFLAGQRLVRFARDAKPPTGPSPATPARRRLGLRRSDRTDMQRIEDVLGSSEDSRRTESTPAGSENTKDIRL
Chain of P2Y purinoceptor 6 (Rattus norvegicus, UniProt Q63371) (Q63371 whole entry): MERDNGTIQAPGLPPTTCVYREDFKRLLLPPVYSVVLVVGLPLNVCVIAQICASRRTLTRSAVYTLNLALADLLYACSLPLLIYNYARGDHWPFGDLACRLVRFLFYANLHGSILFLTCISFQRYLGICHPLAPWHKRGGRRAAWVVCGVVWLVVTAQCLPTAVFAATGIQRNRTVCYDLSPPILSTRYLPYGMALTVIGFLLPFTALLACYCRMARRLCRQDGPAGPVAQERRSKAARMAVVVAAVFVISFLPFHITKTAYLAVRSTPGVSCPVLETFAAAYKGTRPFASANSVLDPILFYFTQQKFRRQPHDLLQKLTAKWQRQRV

## O=c1ccn([C@@H]2O[C@H](COP(=O)(O)OP(=O)(O)O)[C@@H](O)[C@H]2O)c(=S)[nH]1
[1]
  Activity: 42%
[2]
  EC50: > 1000 nM
[3]
  EC50: 239 nM
[4]
  Activity: 91%
[5]
  EC50: > 1000 nM
[6]
  Activity: 18%
[7]
  Activity: 73%

## O=C(Cn1c(=O)ccn([C@@H]2O[C@H](COP(=O)(O)OP(=O)(O)OP(=O)(O)O)[C@@H](O)[C@H]2OP(=O)(O)O)c1=O)c1ccccc1
[1]
  Activity: 54%
[2]
  EC50: ≤ 1000 nM
[3]
  EC50: > 1000 nM
[8]
  Activity: 0%
[9]
  Activity: 75%
[4]
  Activity: 107%
[5]
  EC50: > 100000 nM
[7]
  Activity: 0%

## O=c1[nH]c(=O)n([C@@H]2O[C@H](COP(=O)(O)OP(=O)(O)OP(=O)(O)O)[C@@H](O)[C@H]2O)cc1Br
[2]
  EC50: 347 nM
[3]
  EC50: 291 nM
[5]
  EC50: 3460 nM

## O=C(Cn1c(=O)ccn([C@@H]2O[C@H](COP(=O)(O)OP(=O)(O)OP(=O)(O)O)[C@@H](O)[C@H]2O)c1=O)c1ccccc1
[1]
  Activity: 38%
[2]
  EC50: > 1000 nM
[3]
  EC50: > 1000 nM
[8]
  Activity: 27%
[9]
  Activity: 100%
[4]
  Activity: 103%
[5]
  EC50: > 1000 nM
[6]
  Activity: 10%
[7]
  Activity: 54%

## CCCc1cc(=O)n([C@@H]2O[C@H](COP(=O)(O)OP(=O)(O)O)[C@@H](O)[C@H]2O)c(=O)[nH]1
[2]
  EC50: > 100000 nM
[3]
  EC50: > 1000 nM
[9]
  Activity: 23%
[4]
  Activity: 28%
[5]
  EC50: > 100000 nM
[7]
  Activity: 0%
[10]
  Activity: inactive

## O=c1[nH]c(=O)n([C@@H]2O[C@H](COP(=O)(O)OP(=O)(O)O)[C@@H](O)[C@H]2O)cc1Br
[2]
  EC50: 3670 nM
[3]
  EC50: 151 nM
[11]
  EC50: 130 nM
[12]
  Ratio: 24
[13]
  Ratio: 48
[5]
  EC50: 7200 nM

## CCCc1cc(=O)n([C@@H]2O[C@H](COP(=O)(O)OP(=O)(O)OP(=O)(O)O)[C@H]3OP(=O)(O)O[C@H]32)c(=O)[nH]1
[1]
  Activity: 24%
[2]
  EC50: > 1000 nM
[3]
  EC50: > 100000 nM
[9]
  Activity: 8%
[4]
  Activity: 69%
[5]
  EC50: > 100000 nM
[7]
  Activity: 1%

## Cc1cc(=O)n([C@@H]2O[C@H](COP(=O)(O)OP(=O)(O)O)[C@@H](O)[C@H]2O)c(=O)[nH]1
[1]
  Activity: 25%
[2]
  EC50: > 1000 nM
[3]
  EC50: > 1000 nM
[8]
  Activity: 0%
[9]
  Activity: 108%
[4]
  Activity: 69%
[5]
  EC50: > 100000 nM
[7]
  Activity: 7%

## Cn1c(=O)ccn([C@@H]2O[C@H](COP(=O)(O)OP(=O)(O)OP(=O)(O)O)[C@@H](O)[C@H]2O)c1=O
[2]
  EC50: 564 nM
[3]
  EC50: > 1000 nM
[8]
  Activity: 2%
[9]
  Activity: 109%
[5]
  EC50: 2920 nM

## O=c1cc(O)n([C@@H]2O[C@H](COP(=O)(O)O)[C@@H](O)[C@H]2O)c(=O)[nH]1
[2]
  EC50: > 100000 nM
[3]
  EC50: > 100000 nM
[9]
  Activity: 0%
[4]
  Activity: 11%
[5]
  EC50: > 100000 nM
[7]
  Activity: 11%

## Cn1c(=O)ccn([C@@H]2O[C@H](COP(=O)(O)OP(=O)(O)O)[C@@H](O)[C@H]2O)c1=O
[1]
  Activity: 10%
[2]
  EC50: > 1000 nM
[3]
  EC50: > 1000 nM
[8]
  Activity: 8%
[9]
  Activity: 121%
[4]
  Activity: 99%
[5]
  EC50: > 100000 nM
[7]
  Activity: 0%

## Cc1cc(=O)n([C@@H]2O[C@H](COP(=O)(O)OP(=O)(O)OP(=O)(O)O)[C@@H](O)[C@H]2O)c(=O)[nH]1
[1]
  Activity: 18%
[2]
  EC50: > 1000 nM
[3]
  EC50: > 1000 nM
[8]
  Activity: 0%
[9]
  Activity: 72%
[14]
  Activity: inactive
[4]
  Activity: 93%
[5]
  EC50: > 100000 nM
[6]
  Activity: 8%
[7]
  Activity: 29%
[15]
  Activity: inactive
[10]
  Activity: inactive

## O=C(Cn1c(=O)ccn([C@@H]2O[C@H](COP(=O)(O)O)[C@@H](O)[C@H]2O)c1=O)c1ccccc1
[2]
  EC50: > 100000 nM
[3]
  EC50: > 100000 nM
[9]
  Activity: 16%
[14]
  Activity: inactive
[4]
  Activity: 9%
[5]
  EC50: > 100000 nM
[7]
  Activity: 2%
[15]
  Activity: inactive
[10]
  Activity: inactive

## O=c1cc(O)n([C@@H]2O[C@H](COP(=O)(O)OP(=O)(O)OP(=O)(O)O)[C@@H](O)[C@H]2O)c(=O)[nH]1
[1]
  Activity: 6%
[2]
  EC50: > 1000 nM
[3]
  EC50: > 100000 nM
[8]
  Activity: 0%
[9]
  Activity: 43%
[14]
  Activity: inactive
[4]
  Activity: 80%
[5]
  EC50: > 100000 nM
[6]
  Activity: 11%
[7]
  Activity: 12%
[15]
  Activity: inactive
[10]
  Activity: inactive

## O=c1ccn([C@@H]2O[C@H](COP(=O)(O)OP(=O)(O)OP(=O)(O)O)[C@@H](O)[C@H]2O)c(=S)[nH]1
[2]
  EC50: 50 nM
[3]
  EC50: > 1000 nM
[8]
  Activity: 44%
[9]
  Activity: 118%
[5]
  EC50: 1770 nM

## O=C(Cn1c(=O)ccn([C@@H]2O[C@H](COP(=O)(O)OP(=O)(O)O)[C@@H](O)[C@H]2O)c1=O)c1ccccc1
[1]
  Activity: 22%
[2]
  EC50: > 1000 nM
[3]
  EC50: 70 nM
[4]
  Activity: 85%
[5]
  EC50: > 100000 nM
[7]
  Activity: 11%

## CCCc1cc(=O)n([C@@H]2O[C@H](COP(=O)(O)O)[C@@H](O)[C@H]2O)c(=O)[nH]1
[2]
  EC50: > 100000 nM
[3]
  EC50: > 100000 nM
[9]
  Activity: 26%
[4]
  Activity: 9%
[5]
  EC50: > 100000 nM
[7]
  Activity: 5%

## O=c1ccn([C@@H]2O[C@H](COP(=O)(O)O)[C@@H](O)[C@H]2O)c(=S)[nH]1
[1]
  Activity: 6%
[2]
  EC50: ≥ 100000 nM
[3]
  EC50: > 100000 nM
[9]
  Activity: 18%
[4]
  Activity: 51%
[5]
  EC50: > 100000 nM
[7]
  Activity: 2%

## CCCc1cc(=O)n([C@@H]2O[C@H](COP(=O)(O)OP(=O)(O)OP(=O)(O)O)[C@@H](O)[C@H]2O)c(=O)[nH]1
[1]
  Activity: 16%
[2]
  EC50: > 1000 nM
[3]
  EC50: > 100000 nM
[8]
  Activity: 0%
[9]
  Activity: 23%
[14]
  Activity: inactive
[4]
  Activity: 83%
[5]
  EC50: > 100000 nM
[7]
  Activity: 4%
[15]
  Activity: inactive
[10]
  Activity: inactive

## O=c1ccn([C@@H]2O[C@H](COP(=O)(O)OP(=O)(O)OP(=O)(O)O)[C@@H](O)[C@H]2O)c(=O)[nH]1 [URIDINE TRIPHOSPHATE]
[2]
  EC50: 43 nM
[5]
  EC50: 87 nM

## Cn1c(=O)ccn([C@@H]2O[C@H](COP(=O)(O)O)[C@@H](O)[C@H]2O)c1=O
[1]
  Activity: 3%
[2]
  EC50: > 100000 nM
[3]
  EC50: ≥ 100000 nM
[8]
  Activity: 0%
[9]
  Activity: 51%
[4]
  Activity: 30%
[5]
  EC50: > 100000 nM
[7]
  Activity: 3%

## O=c1ccn([C@@H]2O[C@H](COP(=O)(O)OP(=O)(O)O)[C@@H](O)[C@H]2O)c(=O)[nH]1 [URIDINE_DIPHOSPHATE]
[3]
  EC50: 42 nM

## Cc1cc(=O)n([C@@H]2O[C@H](COP(=O)(O)O)[C@@H](O)[C@H]2O)c(=O)[nH]1
[2]
  EC50: > 100000 nM
[3]
  EC50: > 100000 nM
[9]
  Activity: 2%
[4]
  Activity: 17%
[5]
  EC50: > 100000 nM
[7]
  Activity: 6%

## O=c1[nH]c(=O)n([C@@H]2O[C@H](COP(=O)(O)OP(=O)(O)C(Cl)(Cl)P(=O)(O)O)[C@@H](O)[C@H]2O)cc1Br
[2]
  EC50: 354 nM
[3]
  EC50: 120 nM
[5]
  EC50: 3990 nM

## O=c1[nH]c(=O)n([C@@H]2O[C@H](COP(=O)(O)O)[C@@H](O)[C@H]2O)cc1Br
[1]
  Activity: 2%
[2]
  EC50: > 1000 nM
[3]
  EC50: > 1000 nM
[8]
  Activity: 43%
[9]
  Activity: 124%
[4]
  Activity: 70%
[5]
  EC50: > 100000 nM
[7]
  Activity: 21%
